Assay results from patent publication US20090105206A1, “Copper Melphalan And Copper Tegafur As Anti-Tumor Agents” (priority 2004, published 2009).
Several values for one entry are separate records, joined by “and”; a condition that tells them apart may be missing. Equal values may be shown once.

Test system: OVCAR-3/P19 tumor cells
Experiment: Example 6: NOD/SCID mice s.c. injected with OVCAR-3 tumor cells
Format: in vivo, female NOD/SCID mice
Set-up: Vol (tumor volume) Day 20 / Vol (tumor volume) Day 30 / Vol (tumor volume) Day 37: unit: cm^3
Description: 2×10^6 OVCAR-3/P19 tumor cells were s.c. injected into female NOD/SCID mice. The mice were treated as follows.
The treatment began with a mean tumor volume of 80 mm^3.
To level possible differences in tumor volume at the start of treatment in the individual groups and to make evident differences owing to the low absolute volumes in the treatment groups, the relative tumor volumes (RTV) have been analyzed. The relative tumor volume results from the ratio of the volume on day x and the tumor volume at the start of treatment in the same test animal. […] The tumor growth was stopped in group 2 after just 7 days. After 3 days of constant tumor volume a tumor regression began from day 30 (10th day of treatment) in the test animals treated with copper-melphalan.

[1] = Gr. 3, 7.5 mg/kg copper-melphalan i.p., individual animals
[2] = Gr. 3, 7.5 mg/kg copper-melphalan i.p., n = 8
[3] = Gr. 3, 7.5 mg/kg copper-melphalan i.p., n = 8, baseline
[4] = Gr. 3, 7.5 mg/kg copper-melphalan vs 5 mg/kg melphalan
[5] = Gr. 3, 7.5 mg/kg copper-melphalan vs 5 mg/kg melphalan, baseline
[6] = Gr. 3, 7.5 mg/kg copper-melphalan vs control (PBS)

N[C@@H](Cc1ccc(N(CCCl)CCCl)cc1)C(=O)[O-].N[C@@H](Cc1ccc(N(CCCl)CCCl)cc1)C(=O)[O-].O.O.[Cu+2] [Cu(melphalan)2]
effectiveness compared with melphalan (RTV, FIG. 9) (7.5 mg/kg copper-melphalan vs 5 mg/kg melphalan i.p.): more effective than melphalan | day from which tumor regression began (7.5 mg/kg i.p., 10th day of treatment, after 3 days of constant tumor volume): 30 days | mice with tumor regression on day 37 (Gr. 3, 7.5 mg/kg copper-melphalan): 88% | Vol (tumor volume) Day 20 (Gr. 3, 7.5 mg/kg copper-melphalan i.p. days 21-37 every 2nd day, Day 20 = start of treatment (baseline), individual animals): 0.08 and 0.11 and 0.05 and 0.04 and 0.10 and 0.02 and 0.09 and 0.12 | RTV (relative tumor volume) Day 20 (Gr. 3, 7.5 mg/kg copper-melphalan i.p., baseline, individual animals): 1.00 | RTV (relative tumor volume) Day 30 [1]: 1.63 and 1.36 and 2.20 and 1.75 and 1.90 and 2.50 and 1.78 and 1.83 | RTV (relative tumor volume) Day 37 [1]: 2.78 and 0.63 and 0.43 and 0.78 and 0.67 and 0.70 and 0.60 and 0.51 | Vol (tumor volume) Day 30 [1]: 0.13 and 0.15 and 0.11 and 0.07 and 0.19 and 0.05 and 0.16 and 0.22 | Vol (tumor volume) Day 37 [1]: 0.05 (3×) and 0.14 and 0.03 and 0.07 and 0.01 and 0.06 | RTV Day 30, mean [2]: 1.87 | RTV Day 30, median [2]: 1.81 | RTV Day 37, mean [2]: 0.89 | RTV Day 37, median [2]: 0.65 | Vol Day 30, mean [2]: 0.14 | Vol Day 30, median [2]: 0.14 | Vol Day 37, mean [2]: 0.06 | Vol Day 37, median [2]: 0.05 | RTV Day 20, mean [3]: 1.00 | RTV Day 20, median [3]: 1.00 | Vol Day 20, mean [3]: 0.08 | Vol Day 20, median [3]: 0.09 | RTV Day 30, mean in % of group 2 [4]: 82.1% | RTV Day 30, median in % of group 2 [4]: 76.8% | RTV Day 37, mean in % of group 2 [4]: 61.3% | RTV Day 37, median in % of group 2 [4]: 45.7% | Vol Day 30, mean in % of group 2 [4]: 80.6% | Vol Day 30, median in % of group 2 [4]: 93.3% | Vol Day 37, mean in % of group 2 [4]: 55.1% | Vol Day 37, median in % of group 2 [4]: 63.4% | RTV Day 20, mean in % of group 2 [5]: 100.0% | RTV Day 20, median in % of group 2 [5]: 100.0% | Vol Day 20, mean in % of group 2 [5]: 89.7% | Vol Day 20, median in % of group 2 [5]: 113.3% | RTV Day 30, mean in % of group 1 [6]: 31.5% | RTV Day 30, median in % of group 1 [6]: 44.8% | RTV Day 37, mean in % of group 1 [6]: 8.2% | RTV Day 37, median in % of group 1 [6]: 8.0% | Vol Day 30, mean in % of group 1 [6]: 37.6%
